In patent US7271148B2, “Inhibition of cellular proteases” (The Board of Regents of The University of Texas System, priority 1999, dated 2007):

Tested on: p21^cip1 abundance in HCMV-infected LU cells
Assay: Western blot of p21cip1 abundance in HCMV-infected, density-arrested LU cells
Format: cell-based, human
Description: Cell culture and growth arrest. LU cells (3) were propagated in Eagle's minimum essential medium containing 10% fetal bovine serum and penicillin (100 units/ml)/streptomycin (100 μg/ml) in a 5% CO2 in air atmosphere. The cells were density-arrested as described previously in detail (18).
Virus stocks and productive infection. The AD169 strain of HCMV was propagated in LU cells as previously described in detail (6). The infectivity of virus stocks was determined by plaque assay (3). Virus stocks typically had infectivities between 8.0×10^6 and 4.0×10^7 plaque-forming units (PFU)/milliliter. LU cells were infected with HCMV as described in detail by Bresnahan et al. (18). Virus stocks and cell cultures were routinely examined for mycoplasma.
Western blots. Polyclonal or monoclonal antibody for p21^cip1 was obtained from Santa Cruz Biotechnology, Inc. (Santa Cruz, Calif.). Monoclonal antibodies against m-calpain, μ-calpain or calpastatin were generously provided by Dr. R. I. Mellgren (see also 75). Cells were harvested as described previously (18) by dislodging the cells with a cell lifter in phosphate buffered saline. The cells were collected by sedimentation and lysed in NP-40 lysis buffer [50 mM Tris, pH 7.4, 50 mM NaCl, 0.5% NP-40, and 1 mM NaVO3, 50 mM NaF, 1mM phenylmethylsulfonyl fluoride (PMSF), 1 mM dithiothreitol (DTT), 25 μg/ml trypsin inhibitor, 25 μg/ml aprotinin, 1 mM benzamide, and 25 μg/ml pepstatin A added just before use]. Cellular debris was removed by sedimentation and the supernatant fluids were reserved. The protein concentration was determined by the BCA protein assay (Pierce, Rockford, Ill.). Whole cell extracts (40 μg/lane) were fractionated by SDS-polyacrylamide gel electrophoresis (PAGE), and the polypeptides were transferred to nitrocellulose membranes (Bio-Rad Laboratories, Hercules, Calif.) as described previously (18). Antigen-antibody reactions were detected with the enhanced chemiluminescent assay (Amersham Pharmacia Biotech) following the manufacturer's recommendations. […]
FIGS. 9 and 10. The concentration effect of E64d on p21^cip1 abundance in HCMV-infected cells. 9: LU cells were density arrested as described in Materials and Methods. The cells were HCMV (5 PFU/cell) or mock infected, and at 48 hr PI were treated with selected concentrations of E64d. Whole cell lysates were prepared 6 hr later, and 40 μg of protein from each lysate was resolved by SDS-PAGE. The proteins were transferred to nitrocellulose and probed with antibodies to p21^cip1. Mock: mock-infected cells in the absence of drug. Control, untreated HCMV-infected cells. 0, DMSO solvent control, consisting of HCMV-infected cells treated with the same concentration of DMSO solvent (0.1%) contained in the highest concentration of E64d. 10: Represents the abundance of p21^cip1 determined by densitometric analysis of the data in FIG. 9.
FIGS. 11 and 12. The concentration effect of Z-Leu-Leu-H on p21^cip1 abundance in HCMV-infected cells. 11. LU cells were density arrested as described in Materials and Methods. The cells were HCMV (5 PFU/cell) infected, and at 48 hr PI were treated with selected concentrations of Z-Leu-Leu-H. Whole cell lysates were prepared 6 hr later, and 40 μg of protein from each lysate was resolved by SDS-PAGE. The proteins were transferred to nitrocellulose and probed with antibodies to p21^cip1. Mock, Control, and 0 are defined as in the legend to FIG. 9. 12 : Represents the abundance of p21^cip1 determined by densitometric analysis of the data in FIG. 11.
FIGS. 13 and 14. The time course for the effect of E64d on p21^cip1 abundance in HCMV-infected, density-arrested cells. 13: LU cells were density arrested, as described in Materials and Methods. The cells were HCMV (5 PFU/cell) or mock infected, and at the intervals indicated in the Fig., beginning 1 hr after infection, subsets of the cells were treated with E64d (100 μM). […]

SMILES: CC(C)C[C@H](NC(=O)[C@H]1O[C@@H]1C(=O)O)C(=O)NCCCCN=C(N)N (relative stereo) [E64d, trans-epoxysuccinyl-L-leucylamido (4-guanidino)-butane]
- p21^cip1 abundance as % of that measured in mock-infected cells (100 μM, HCMV-infected cells treated at 48 hr PI, lysates 6 hr later): about 85%
- increase in the abundance of p21^cip1 (E64d 100 μM from 48 hr PI, HCMV-infected cells, after 12 hr of treatment): 4 fold
- maximum level of p21^cip1 relative to that observed at 0 hr (E64d 100 μM from 48 hr PI, HCMV-infected cells, up to 24 hr treatment): about 84%
- p21^cip1 levels versus absence of inhibitor over time course of infection (in words) (E64d 100 μM up to 12 hr before harvest, HCMV-infected cells, 3 hr to 96 hr PI): consistently greater
- protection of p21^cip1, concentration effect (in words) (HCMV-infected cells treated at 48 hr PI for 6 hr, selected concentrations up to 100 μM): directly dependent on the concentration
